Series [1] has as its system Cryptotermes cyanocephalos. Nature of the series: Toxicity to dry wood termites, C. cyanocephalos. The series is classed as in vivo. To be noted: 24 h, 30° C., survival after one week. The procedure: (§1) Termites were obtained from cultures kept at 30° C. and 80% RH. Termites were transferred to 120 mL bottles fitted with Mininert valved lids and a 325 mg chip of plywood and sealed whilst at 80% RH and 30° C. All fumigations were performed in duplicate with a sample size of 10-11 insects for C. brevis, 25 insects for C. cyanocephalos and 22 insects for C. domesticus. An appropriate volume of air was removed from the sample bottles prior to the addition of fumigants. Dosed samples were analysed on a gas chromatograph to ensure concentrations were as predicted. A second set of gas chromatograph readings was taken prior to airing to ensure fumigant concentrations had remained static throughout the exposure period. […]
(§2) C2 N2 concentrations were measured on a Varian 3300 Gas Chromatograph equipped with a Thermionic Specific Detactor after separation on a DBwax column of internal diameter 0.53 mm. Phosphine concentrations were measured on a Shimadzu 6AM equipped with a Flame Photometric Detector. Methyl bromide concentrations were measured on a Shimadzu 6AM equipped with a Flame Ionisation Detector after separation on a GasChromQ with 20% OV-IO1 column.
(§3) After 24 hours exposure, termites and wood chips were transferred to plastic Petri dishes each containing a large piece of plywood. Initial and one week survivals were recorded.

Series [2] can be described thus: Sorption and desorption on wheat, comparative. The note with it: 25 g wheat; C2 N2 10 mg/L, phosphine 2 mg/L, methyl bromide 32 mg/L. The procedure:
Samples of wheat (25 g) were placed in 250 mL conical flasks of known volume. The flasks were stoppered with a gas tight stopper containing a rubber septum (injection port). Flasks were dosed with C2 N2 (10 mg/L), phosphine (2 mg/L) or methyl bromide (32 mg/L). After 24 h the headspace concentrations were determined by gas chromatography. Each flask was then opened and the wheat sample aired briefly by pouring the wheat from one container to another and then the remaining sorbed fumigant was estimated by grinding the wheat sample in a gas-tight Waring blender canister fitted was a sampling port and determining the released fumigant by head space analysis.

In series [3] the test system is Cryptotermes domesticus. The experiment in a line: Toxicity to dry wood termites, C. domesticus. The class given is in vivo. The note with it: 24 h, 30° C., survival after one week. The procedure:
as §1, §2, §3

In series [4] the test system is Cryptotermes brevis. Nature of the series: Toxicity to dry wood termites, C. brevis. The class given is in vivo. To be noted: 24 h, 30° C., survival after one week. How it is done: as §1, §2, §3
Series [5] has as its system Rhyzopertha dominica (F.), strain Rd2. To be noted: R. dominica adults, cited from earlier work.
The conditions of series [6]: cited from earlier work.
For series [7] the following is noted: cited from earlier work; for carcinogenicity: Sax and Lewis, 1989; for TLV value: worker safety limit.
Series [8] has as its system Leucadendron. Nature of the series: Phytotoxicity to cut flowers, Leucadendron. To be noted: methyl bromide 30 mg L^-1, 2 h; control 7. The procedure:
(§4) Field Carnations and Leucadendrons were purchased from a local wholesale florist. […]
(§5) After 2 hours the drums were opened and allowed to air in a fume hood, the flowers were removed from the drums, the stems trimmed and the bunches placed in water and left in the fume hood to air for 2 hours then placed in a cool room.
(§6) Assessment of the phytoxicity of the fumigants was done after one week of cold storage.
(§7) The phytoxicity assessments were made by a panel of six people who were asked independently to give a value out of 10 (Where 10 is excellent and 1 is unsaleable) for each flower and each treatment. The figures given below are the averaged results.

The test system of series [9] is Carnation. Nature of the series: Phytotoxicity to cut flowers, Carnation. The note with it: methyl bromide 30 mg L^-1, 2 h; control 5. How it is done:
as §4, §5, §6, §7

Results on seven compounds are retold here after patent US6001383A (priority 1994, dated 1999).

Read-outs that look alike come from different tables or passages of the source.

Turning to `P` [phosphine], the “applied concentration giving 100% mortality” value in series [1] is listed as 0.43 mgL^-1; in series [3] it was 0.22 mgL^-1; in series [4], 0.43 mgL^-1. The “initial fumigant remaining in headspace after 24 h” value in series [2] stood at 91%.

With `O=C=S` [carbonyl sulphide], the “CT product for control of adults” value in series [5] (Desmarchelier 1994) is recorded as 68.7 mghL^-1.

For `C1CO1` [ethylene oxide], the “solubility in water” value in series [6] is “poorly soluble in water”. For the same compound, in series [7], the carcinogenicity entry is recorded as “suspect carcinogen” and the TLV value is 0.1 ppm.

Take `ClCCCl` [ethylene dichloride]: the “CT product for control of adults” value in series [5] (Monro, 1967) is listed as 636.0 mghL^-1.

For the compound `CBr` [methyl bromide], the “applied concentration giving 100% mortality” value in series [1] is 3.47 mgL^-1; in series [3] it was 4.35 mgL^-1; in [4], 1.74 mgL^-1. For the same compound, the “phytotoxicity score (10 excellent, 1 unsaleable)” value in series [8] is 6; in [9], 3. Further, the “CT product for control of adults” value in [5] (Monro, 1967) is given as 33.0 mghL^-1. The “initial fumigant remaining in headspace after 24 h” value in series [2] is on record as 69%.

Turning to `C=O` [formaldehyde], in [7], the carcinogenicity entry is recorded as “suspect carcinogen” and the TLV value is listed as 1 ppm.

With `S=C=S` [carbon disulphide], in series [5] (Monro, 1967), the “CT product for control of adults” value is given as 294.0 mghL^-1.
